This is an account of results in ChEMBL document CHEMBL1255377, “Synergy of human immunodeficiency virus protease inhibitors with chloroquine against Plasmodium falciparum in vitro and Plasmodium chabaudi in vivo” (Antimicrob Agents Chemother, 2008).

Active and inactive are the calls of the source. No cut-off for these calls is given here.

Holding throughout (type): functional, organism-based
Assay [1] concerns Plasmodium falciparum. Put plainly: Antimicrobial activity against chloroquine-resistant Plasmodium falciparum Dd2 infected in human erythrocytes assessed as potentiation of choloroquine-mediated antimalarial activity by light microscopy.
Assay [2] has as its system Plasmodium chabaudi. Put plainly: Antimicrobial activity against chloroquine-resistant Plasmodium chabaudi ASCQ infected in NIH mice (Mus musculus) assessed as potentiation of 2.5 mg/kg chloroquine-mediated antimalarial activity at 100 mg/kg, perorally administered after 72 hrs post inoculation measured on day 4 post infection.
Assay [3] concerns Plasmodium falciparum. Put plainly: Antimicrobial activity against chloroquine-resistant Plasmodium falciparum 3D7 infected in human erythrocytes assessed as potentiation of choloroquine-mediated antimalarial activity by light microscopy.
The subject of assay [4] is Plasmodium chabaudi. Put plainly: Antimicrobial activity against chloroquine-resistant Plasmodium chabaudi ASCQ infected in NIH mice (Mus musculus) at 2.5 mg/kg, perorally administered after 72 hrs post inoculation measured on day 4 post infection. On the set-up: dose 2.5 mg/kg.
Assay [5] relates to Plasmodium chabaudi. Put plainly: Antimicrobial activity against chloroquine-sensitive Plasmodium chabaudi ASS infected in NIH mice (Mus musculus) assessed as potentiation of 2.5 mg/kg chloroquine-mediated antimalarial activity at 100 mg/kg, perorally administered after 72 hrs post inoculation measured on day 4 post infection.
The subject of assay [6] is Plasmodium chabaudi. Put plainly: Antimicrobial activity against chloroquine-resistant Plasmodium chabaudi ASCQ infected in NIH mice (Mus musculus) assessed as potentiation of 2.5 mg/kg chloroquine-mediated antimalarial activity at 10 to 160 mg/kg, perorally administered after 72 hrs post inoculation measured on day 4 post infection.
Assay [7] concerns Plasmodium chabaudi. Description: Antimicrobial activity against chloroquine-resistant Plasmodium chabaudi ASCQ infected in NIH mice (Mus musculus) at 10 to 160 mg/kg, perorally administered after 72 hrs post inoculation measured on day 4 post infection.

With `Cc1cccc(C)c1OCC(=O)N[C@@H](Cc1ccccc1)[C@@H](O)C[C@H](Cc1ccccc1)NC(=O)[C@H](C(C)C)N1CCCNC1=O`, the result in the assay with Plasmodium falciparum [1] and in the assay on Plasmodium falciparum [3] was Active. Also, in the assay on Plasmodium chabaudi [2], the outcome was inactive.
As to `COC(=O)N[C@H](C(=O)N[C@@H](Cc1ccccc1)[C@@H](O)CN(Cc1ccc(-c2ccccn2)cc1)NC(=O)[C@@H](NC(=O)OC)C(C)(C)C)C(C)(C)C`, the result in the assay on Plasmodium falciparum [1], in the assay on Plasmodium chabaudi [2] and with Plasmodium falciparum [3] was Active.
Turning to `CCN(CC)CCCC(C)Nc1ccnc2cc(Cl)ccc12` (centres undefined), the result in the assay with Plasmodium chabaudi [4] was inactive.
For `Cc1c(O)cccc1C(=O)N[C@@H](CSc1ccccc1)[C@H](O)CN1C[C@H]2CCCC[C@H]2C[C@H]1C(=O)NC(C)(C)C`, the result with Plasmodium falciparum [1], in the assay on Plasmodium chabaudi [2] and in the assay with Plasmodium falciparum [3] was Active.
Turning to `CC(C)(C)NC(=O)[C@@H]1C[C@@H]2CCCC[C@@H]2CN1C[C@@H](O)[C@H](Cc1ccccc1)NC(=O)[C@H](CC(N)=O)NC(=O)c1ccc2ccccc2n1`, the result in the assay with Plasmodium falciparum [1], with Plasmodium chabaudi [2] and in the assay with Plasmodium falciparum [3] was Active.
`CC(C)c1nc(CN(C)C(=O)N[C@H](C(=O)N[C@@H](Cc2ccccc2)C[C@H](O)[C@H](Cc2ccccc2)NC(=O)OCc2cncs2)C(C)C)cs1`: the outcome in the assay with Plasmodium falciparum [1], with Plasmodium chabaudi [5], in the assay with Plasmodium chabaudi [6], with Plasmodium chabaudi [2], in the assay with Plasmodium chabaudi [7] and in the assay on Plasmodium falciparum [3] was Active.
